{"source": "patent US10091997B2", "about": "“Composition for inhibition of insect host sensing” (Vanderbilt University, priority 2010, dated 2018)", "key": {"[1]": {"tested_on": "CpA neuron (CO2 sensitive, does not express AgORco)", "assay": "single sensillum recordings, capitate peg sensilla, CpA neuron", "format": "in vivo, Anopheles gambiae", "conditions": "CO2 pulse at completion of assay, adult females", "description": "(§1) Single sensillum recordings were performed on 4-7 day old, non-bloodfed Anopheles gambiae females maintained on 10% sucrose and a 12/12 light dark cycle. Legs, wings and antennae were removed from cold-anesthetized females that were then restrained on double-stick tape with thread. A glass reference electrode filled with Sensillar lymph ringers (SLR)(Xu, 2005) was placed in the eye and the recording electrode filled with DMSO or VUAA1 diluted in SLR was used to puncture sensilla at their base. Responses were recorded and digitized using a Syntech IDAC-4 and analyzed with AutoSpike software (Syntech). New glass recording pipettes were used for every recording. Data was sampled at 12 kHz.\n(§2) The inventors next performed single unit, extracellular electrophysiological recordings on adult female An. gambiae to determine whether VUAA1 could activate AgORco-expressing odorant receptor neurons (ORNs) in vivo. ORNs, which express AgORco and a conventional OR are enclosed within the hair-like sensilla present on olfactory tissues. […] CpA is clearly distinguished from CpB/C by its large action potential amplitude. The action potential amplitudes of CpB and CpC are much smaller and in some preparations indistinguishable from each other; as a result, the spike activity of CpB and CpC neurons were binned for data analysis. […]"}, "[2]": {"target": "T1, rat transient receptor potential vanilloid 1 (rTRPV1) (Rattus norvegicus, UniProt O35433)", "T1 construct": "expressed in transfected cells", "T1 sequence (O35433 whole entry)": "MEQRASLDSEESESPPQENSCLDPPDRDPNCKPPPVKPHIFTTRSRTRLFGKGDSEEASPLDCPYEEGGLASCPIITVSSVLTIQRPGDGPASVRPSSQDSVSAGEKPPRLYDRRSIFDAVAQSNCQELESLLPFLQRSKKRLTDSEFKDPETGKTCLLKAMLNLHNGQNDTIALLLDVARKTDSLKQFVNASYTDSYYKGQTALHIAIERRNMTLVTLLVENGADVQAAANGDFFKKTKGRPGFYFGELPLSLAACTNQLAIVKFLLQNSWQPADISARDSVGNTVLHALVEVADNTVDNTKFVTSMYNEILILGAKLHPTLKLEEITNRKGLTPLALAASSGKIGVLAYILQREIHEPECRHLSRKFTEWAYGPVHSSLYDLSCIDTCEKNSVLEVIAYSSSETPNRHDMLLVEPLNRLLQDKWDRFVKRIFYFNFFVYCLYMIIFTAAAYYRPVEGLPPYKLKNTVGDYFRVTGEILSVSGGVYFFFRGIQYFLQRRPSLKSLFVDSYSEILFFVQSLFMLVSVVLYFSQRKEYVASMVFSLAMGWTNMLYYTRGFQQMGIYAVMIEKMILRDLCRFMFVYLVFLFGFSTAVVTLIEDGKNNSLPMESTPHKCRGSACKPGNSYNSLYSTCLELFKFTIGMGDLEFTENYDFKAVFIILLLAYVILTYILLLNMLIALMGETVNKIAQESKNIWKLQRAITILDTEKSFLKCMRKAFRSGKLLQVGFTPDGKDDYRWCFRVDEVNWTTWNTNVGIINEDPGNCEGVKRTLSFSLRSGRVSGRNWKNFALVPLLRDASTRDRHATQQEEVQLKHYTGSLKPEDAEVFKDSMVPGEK", "assay": "whole-cell patch clamp, HEK cells stably expressing rTRPV1", "format": "cell-based", "source_text": "To determine the broad-spectrum specificity of VUAA1, the inventors tested VUAA1 on another non-selective cation channel, transient receptor potential vanilloid receptor 1 (TRPV1) (Caterina, 1997; Bohlen, 2010)."}, "[3]": {"tested_on": "AgORco-expressing neurons (CpB/C)", "assay": "single sensillum recordings, capitate peg sensilla, CpB/C neurons", "format": "in vivo, Anopheles gambiae", "conditions": "delivered via glass recording electrode, adult females", "description": "as §1, §2"}, "[4]": {"tested_on": "AgORco+AgOR10", "assay": "whole-cell patch clamp, HEK293 cells expressing AgORco+AgOR10", "format": "cell-based, Anopheles gambiae", "conditions": "AgORco+AgOR10 cells", "description": "Currents from OR-expressing HEK293 cells were amplified with an Axopatch 200b Amplifier (Axon Instruments) and digitized through a Digidata 1322A (Axon Instruments). Electrophysiological data was recorded and analyzed using pCLAMP 10 (Axon Instruments). Electrodes were fabricated from quartz tubing (Sutter Instruments) and pulled to 4-6 MΩ for whole cell recording. Electrodes were filled with internal solution (120 mM KCl, 30 mM D-glucose, 10 mM HEPES, 2 mM MgCl2, 1.1 mM EGTA, and 0.1 CaCl2 (pH 7.35, 280 mOsm). External (bath) solution contained 130 mM NaCl, 34 mM D-glucose, 10 mM HEPES, 1.5 mM CaCl2, 1.3 mM KH2PO4, and 0.5 MgSO4 (pH 7.35, 300 mOsm). Compounds were diluted in external solution and locally perfused to the recording cell using Perfusion Pencil (Automate Scientific) and controlled by a ValveLink 8.2 controller (Automate Scientific). Whole cell recordings were sampled at 10 kHz and filtered at 5 kHz. Outside-out patches were obtained using 10-15MΩ electrodes pulled from standard glass capillaries (World Precision Instruments) and fire-polished with an MF-830 micro forge (Narishige). Single channel recordings were sampled at 20 kHz. Recordings were reduced to 1 kHz and low-pass filtered at 500 Hz for display and analysis using QuB (SUNY at Buffalo).\nTo test the hypothesis that VUAA1 directly agonized AgORco, whole-cell patch clamp responses were examined in AgORco+AgOR10 expressing cells as well HEK293 cells stably expressing AgORco alone. […] The VUAA1-dependent currents in AgORco+AgOR10 cells resembled those resulting from application of benzaldehyde, an orthosteric agonist of AgOR10 (FIG. 3C) (Wang, 2010; Carey, 2010). AgORco+AgOR10 cells were more sensitive to VUAA1 than AgORco cells, producing inward currents at −5.0 log M, a concentration at which AgORco had no response. […] To investigate the specificity of VUAA1 agonism, the inventors transiently transfected HEK cells with the AgORco orthologs of Drosophila melanogaster and Heliothis virescens, DmOR83b and HvOR2 respectively."}}, "data": [{"smiles": "CCc1ccc(NC(=O)CSc2nnc(-c3cccnc3)n2CC)cc1", "note": "[VUAA1]", "values": [{"measurement": "CpA activity", "setting": "[1]", "result": "unchanged"}, {"measurement": "whole-cell currents", "setting": "[2]", "result": "did not elicit currents"}, {"measurement": "spike frequency of CpB/C neurons", "setting": "[3]", "result": "increased the spike frequency of CpB/C neurons in a dose-dependent manner"}, {"measurement": "whole-cell currents", "setting": "[4]; clamped at −60 mV", "result": "concentration-dependent inward currents"}, {"measurement": "concentration producing inward currents", "setting": "[4]; whole-cell", "result": "−5.0", "unit": "log M"}]}]}
